# Reference: patent USRE49850E1, “N-(pyridin-2-yl)-4-(thiazol-5-yl)pyrimidin-2-amine derivatives as therapeutic compounds” (AUCENTRA THERAPEUTICS PTY LTD, priority 2015, dated 2024)
# Tests used:
# CDK6D3 = target: T1, CDK6D3 (Homo sapiens, UniProt Q00534); assay: Kinase assay CDK6/D3 (radiometric or ADP Glo); type: biochemical; conditions: apparent Ki calculated from Km (ATP) and IC50; read-out: CDK inhibition Ki CDK6D3
# T1 construct: purchased Eurofins Pharma Discovery or Reaction Biology Corporation (service)
# Experimental: (§1) Eurofins Pharma Discovery or Reaction Biology Corporation Kinase Profiler services were used to measure inhibition of CDKs and other kinases by radiometric assay. Inhibition of CDK4/D1, CDK6/D3 and CDK9/T1 were also determined in-house using ADP Glo Kinase assays (Promega Corporation, Madison, USA). Briefly, the kinase reaction for CDK4/D1 and CDK6/D3 was performed with kinase reaction buffer ([…] Tris base pH 7.5, 20 mM MgCl2, 0.4 mM DTT), 0.1 mg/ml BSA and RB-CTF substrate (retinoblastoma protein1 C-terminal fraction). For CDK9/CyclinT1, the kinase reaction was performed with standard assay buffer and Kinase Dilution Buffer and RBER-IRStide substrate. Serial dilutions of 1:3 were prepared for test compounds for 10 concentrations (from 10 μM to 0.5 nM). The kinase reactions were started by addition of ATP, incubated for 40 min at 37° C. and then stopped by adding 10 μL of ADP Glo reagent. After incubation at room temperature in the dark for 40 min, 20 μL of kinase detection reagent was added per well and incubated for 40 min. Luminescence was measured using an EnVision Multilabel plate reader (PerkinElmer, Buckinghamshire, UK). Positive and negative controls were perfonned in the presence and absence of CDK kinases, respectively. Half-maximal inhibition (IC50) values were calculated using a 4-parameter logistic non-linear regression model with Graphpad prism (Version 6.0). Apparent inhibition constants (Ki) values were calculated from Km (ATP) and IC50 values for the respective kinases.
# CDK1B = CDK1B (Homo sapiens, UniProt P06493); assay: Kinase assay CDK1B (radiometric profiling service); type: biochemical; conditions: for Ki: apparent Ki calculated from Km (ATP) and IC50, read-out: CDK inhibition Ki CDK1B
# Experimental: as §1
# CDK4D1 = target: T2, CDK4D1 (Homo sapiens, UniProt P11802); assay: Kinase assay CDK4/D1 (radiometric or ADP Glo); type: biochemical; conditions: apparent Ki calculated from Km (ATP) and IC50; read-out: CDK inhibition Ki CDK4D1
# T2 construct: purchased Eurofins Pharma Discovery or Reaction Biology Corporation (service)
# Experimental: as §1
# CDK9T1 = target: T3, CDK9T1 (Homo sapiens, UniProt P50750); assay: Kinase assay CDK9/T1 (radiometric or ADP Glo); type: biochemical; conditions: for Ki: apparent Ki calculated from Km (ATP) and IC50, read-out: CDK inhibition Ki CDK9T1
# T3 construct: purchased Eurofins Pharma Discovery or Reaction Biology Corporation (service)
# Experimental: as §1
# MDA-MB-453 = assay: Cell viability assay (MTT, solid tumour cell line) MDA-MB-453; type: cell-based, human; conditions: Homo sapiens, MDA-MB-453, 72 h; read-out: Anti-proliferative activity GI50 MDA-MB-453
# From the text: (§2) Compounds from Example 1 were subjected to a standard MTT (3-(4,5-dimethylthiazol-2-yl)-2,5-diphenyltetrazolium bromide) and resazurin assays on solid tumour cell lines and leukemia cell lines, respectively, as previously reported (Wang S et al., J Med Chem 47:1662-1675, 2004 and Diab S. et al. CheMedChem 9:962-972, 2014).
# CDK7H = CDK7H (Homo sapiens, UniProt P50613); assay: Kinase assay CDK7H (radiometric profiling service); type: biochemical; conditions: for Ki: apparent Ki calculated from Km (ATP) and IC50, read-out: CDK inhibition Ki CDK7H; for remaining activity at 10 µM: compound at 10 μM, read-out: % remaining enzymatic activity at 10 μM CDK7H
# Experimental: as §1
# MV4-11 = assay: Cell viability assay (resazurin, leukemia cell line) MV4-11; type: cell-based, human; conditions: Homo sapiens, MV4-11, 72 h; read-out: Anti-proliferative activity GI50 MV4-11
# From the text: as §2
# CDK 2A = CDK 2A (Homo sapiens, UniProt P24941); assay: Kinase assay CDK2A (radiometric profiling service); type: biochemical; conditions: for Ki: apparent Ki calculated from Km (ATP) and IC50, read-out: CDK inhibition Ki CDK 2A
# Experimental: as §1
# Chain of CDK7H (P50613 whole entry): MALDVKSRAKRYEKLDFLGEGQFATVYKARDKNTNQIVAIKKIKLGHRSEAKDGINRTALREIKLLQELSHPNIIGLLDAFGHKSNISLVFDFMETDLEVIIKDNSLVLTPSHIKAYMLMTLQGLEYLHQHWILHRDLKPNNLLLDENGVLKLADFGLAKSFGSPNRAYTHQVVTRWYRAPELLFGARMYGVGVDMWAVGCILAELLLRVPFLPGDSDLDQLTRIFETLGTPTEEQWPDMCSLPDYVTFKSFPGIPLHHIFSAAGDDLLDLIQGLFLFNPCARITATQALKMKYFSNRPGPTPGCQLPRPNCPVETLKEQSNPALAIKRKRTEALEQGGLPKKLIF
# Chain of CDK7H (P51946 whole entry partner): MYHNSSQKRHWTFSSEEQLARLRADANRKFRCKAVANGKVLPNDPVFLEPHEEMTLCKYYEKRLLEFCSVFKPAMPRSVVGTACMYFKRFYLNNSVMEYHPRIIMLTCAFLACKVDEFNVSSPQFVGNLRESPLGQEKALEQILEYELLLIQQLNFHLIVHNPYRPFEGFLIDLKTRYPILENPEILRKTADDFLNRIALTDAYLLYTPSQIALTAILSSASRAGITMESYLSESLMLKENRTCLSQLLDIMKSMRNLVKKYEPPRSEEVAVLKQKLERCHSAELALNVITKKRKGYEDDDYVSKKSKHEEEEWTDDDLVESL
# Chain of CDK7H (P51948 whole entry partner): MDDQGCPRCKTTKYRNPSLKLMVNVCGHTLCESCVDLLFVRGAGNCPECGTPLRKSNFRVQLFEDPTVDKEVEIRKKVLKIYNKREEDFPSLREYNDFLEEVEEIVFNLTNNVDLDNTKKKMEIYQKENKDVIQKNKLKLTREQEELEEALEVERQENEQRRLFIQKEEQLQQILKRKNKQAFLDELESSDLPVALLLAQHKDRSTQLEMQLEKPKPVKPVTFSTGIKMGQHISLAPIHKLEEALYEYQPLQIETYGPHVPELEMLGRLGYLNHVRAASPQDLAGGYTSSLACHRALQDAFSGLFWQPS
# Chain of CDK1B (P06493 whole entry): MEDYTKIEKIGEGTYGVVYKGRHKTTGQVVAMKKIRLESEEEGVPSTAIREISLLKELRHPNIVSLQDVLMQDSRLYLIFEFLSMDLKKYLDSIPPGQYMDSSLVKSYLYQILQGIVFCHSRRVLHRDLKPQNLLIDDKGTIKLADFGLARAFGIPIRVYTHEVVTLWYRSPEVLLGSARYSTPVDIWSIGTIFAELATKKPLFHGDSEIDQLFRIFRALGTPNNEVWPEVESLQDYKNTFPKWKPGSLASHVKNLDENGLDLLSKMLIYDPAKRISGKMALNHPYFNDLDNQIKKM
# Chain of CDK1B (P14635 whole entry partner): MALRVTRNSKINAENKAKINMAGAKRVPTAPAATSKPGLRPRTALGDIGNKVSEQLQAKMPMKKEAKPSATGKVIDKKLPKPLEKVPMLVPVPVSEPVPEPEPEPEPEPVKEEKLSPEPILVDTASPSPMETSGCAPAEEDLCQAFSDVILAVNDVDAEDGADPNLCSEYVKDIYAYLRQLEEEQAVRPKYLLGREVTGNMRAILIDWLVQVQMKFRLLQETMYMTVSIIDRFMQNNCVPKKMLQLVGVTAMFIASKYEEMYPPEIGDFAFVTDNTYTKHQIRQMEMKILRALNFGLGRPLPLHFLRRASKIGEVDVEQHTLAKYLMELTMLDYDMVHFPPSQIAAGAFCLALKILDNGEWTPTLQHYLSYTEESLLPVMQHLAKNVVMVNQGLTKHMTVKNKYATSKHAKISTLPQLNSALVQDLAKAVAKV
# T3 sequence (P50750 whole entry): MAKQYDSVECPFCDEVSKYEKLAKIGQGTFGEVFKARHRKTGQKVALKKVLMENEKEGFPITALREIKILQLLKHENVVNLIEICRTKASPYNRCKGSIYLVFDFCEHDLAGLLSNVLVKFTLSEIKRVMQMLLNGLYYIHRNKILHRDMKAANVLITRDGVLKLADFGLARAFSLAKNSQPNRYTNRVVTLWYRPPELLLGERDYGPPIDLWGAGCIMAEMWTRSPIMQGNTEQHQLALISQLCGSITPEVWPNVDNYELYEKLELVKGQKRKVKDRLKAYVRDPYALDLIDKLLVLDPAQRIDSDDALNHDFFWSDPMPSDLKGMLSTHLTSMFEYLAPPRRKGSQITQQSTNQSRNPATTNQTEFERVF
# T3 sequence (O60563 whole entry partner): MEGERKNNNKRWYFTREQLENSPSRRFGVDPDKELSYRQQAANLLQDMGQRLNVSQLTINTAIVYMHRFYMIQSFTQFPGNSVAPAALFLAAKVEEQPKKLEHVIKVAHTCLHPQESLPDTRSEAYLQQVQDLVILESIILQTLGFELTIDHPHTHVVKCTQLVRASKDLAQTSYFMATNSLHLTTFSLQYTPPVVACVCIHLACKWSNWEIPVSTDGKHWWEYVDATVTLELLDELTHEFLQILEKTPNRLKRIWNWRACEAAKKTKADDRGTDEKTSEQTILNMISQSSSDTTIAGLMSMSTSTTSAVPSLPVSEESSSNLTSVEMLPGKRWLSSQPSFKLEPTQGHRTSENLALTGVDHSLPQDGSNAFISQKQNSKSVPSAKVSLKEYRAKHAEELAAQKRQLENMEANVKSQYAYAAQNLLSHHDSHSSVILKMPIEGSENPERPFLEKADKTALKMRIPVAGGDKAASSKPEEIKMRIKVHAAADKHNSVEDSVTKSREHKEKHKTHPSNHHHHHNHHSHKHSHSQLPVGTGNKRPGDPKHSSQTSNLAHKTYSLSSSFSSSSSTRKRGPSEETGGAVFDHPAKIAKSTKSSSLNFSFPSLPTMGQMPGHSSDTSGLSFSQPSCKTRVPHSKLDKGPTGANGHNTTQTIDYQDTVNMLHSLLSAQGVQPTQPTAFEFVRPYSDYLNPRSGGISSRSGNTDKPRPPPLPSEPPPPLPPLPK
# T1 sequence (Q00534 whole entry): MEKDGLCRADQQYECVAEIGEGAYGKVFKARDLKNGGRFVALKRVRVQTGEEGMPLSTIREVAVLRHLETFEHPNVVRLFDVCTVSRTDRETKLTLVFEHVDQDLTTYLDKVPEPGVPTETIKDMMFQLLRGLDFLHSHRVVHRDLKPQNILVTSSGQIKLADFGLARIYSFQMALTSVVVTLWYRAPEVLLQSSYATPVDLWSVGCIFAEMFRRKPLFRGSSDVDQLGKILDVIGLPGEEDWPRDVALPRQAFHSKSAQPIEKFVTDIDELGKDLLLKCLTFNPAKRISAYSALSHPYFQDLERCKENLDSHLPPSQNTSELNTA
# T1 sequence (P30281 whole entry partner): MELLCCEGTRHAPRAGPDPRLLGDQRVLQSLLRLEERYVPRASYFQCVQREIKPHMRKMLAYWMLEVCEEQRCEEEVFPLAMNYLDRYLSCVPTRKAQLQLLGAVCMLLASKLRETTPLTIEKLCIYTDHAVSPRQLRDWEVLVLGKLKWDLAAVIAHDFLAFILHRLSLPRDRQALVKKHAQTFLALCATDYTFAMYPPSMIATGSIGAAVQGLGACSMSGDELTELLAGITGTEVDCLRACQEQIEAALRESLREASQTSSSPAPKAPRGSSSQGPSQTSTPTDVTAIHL
# T2 sequence (P11802 whole entry): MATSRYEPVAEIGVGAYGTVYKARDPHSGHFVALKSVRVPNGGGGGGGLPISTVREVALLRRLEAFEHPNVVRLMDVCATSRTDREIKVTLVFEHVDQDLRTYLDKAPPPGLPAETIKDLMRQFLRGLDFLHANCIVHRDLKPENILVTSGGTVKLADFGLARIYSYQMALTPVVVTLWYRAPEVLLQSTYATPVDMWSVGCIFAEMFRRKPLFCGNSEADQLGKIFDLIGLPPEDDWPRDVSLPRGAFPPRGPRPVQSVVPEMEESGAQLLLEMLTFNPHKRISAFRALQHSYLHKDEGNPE
# T2 sequence (P24385 whole entry partner): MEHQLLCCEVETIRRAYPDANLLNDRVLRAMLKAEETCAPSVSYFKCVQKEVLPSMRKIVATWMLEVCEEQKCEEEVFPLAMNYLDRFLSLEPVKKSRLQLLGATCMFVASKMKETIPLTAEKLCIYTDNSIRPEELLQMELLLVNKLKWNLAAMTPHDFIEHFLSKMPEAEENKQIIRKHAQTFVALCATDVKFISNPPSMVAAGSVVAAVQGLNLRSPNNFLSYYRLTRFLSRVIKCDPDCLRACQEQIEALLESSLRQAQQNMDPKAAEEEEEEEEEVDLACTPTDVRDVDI
Compound,Ki (CDK6D3) [nM],Ki (CDK1B) [nM],Ki (CDK4D1) [nM],Ki (CDK9T1) [nM],GI50 (MDA-MB-453) [nM],Ki (CDK7H) [nM],GI50 (MV4-11) [nM],Ki (CDK 2A) [nM],"remaining activity at 10 µM (CDK1B; compound at 10 μM, read-out: % remaining enzymatic activity at 10 μM CDK1B) [%]","remaining activity at 10 µM (CDK 2A; compound at 10 μM, read-out: % remaining enzymatic activity at 10 μM CDK 2A) [%]",remaining activity at 10 µM (CDK7H) [%],"remaining activity at 10 µM (CDK9T1; compound at 10 μM, read-out: % remaining enzymatic activity at 10 μM CDK9T1) [%]"
"CCN1CCN(Cc2ccc(Nc3ncc(F)c(-c4sc(NC5CCCC5)nc4C)n3)nc2)CC1 [Compound 84, N-cyclopentyl-5-(2-((5-((4-ethylpiperazin-1-yl)methyl)pyridin-2-yl)amino)-5-fluoropyrimidin-4-yl)-4-methylthiazol-2-amine]",14,> 5000,3,3570,622 ± 208,630,,,,,,
"CSc1nc(C)c(-c2ccnc(Nc3ccc(N4CCNCC4)cn3)n2)s1 [Compound 20, 4-(4-Methyl-2-(methylthio)thiazol-5-yl)-N-(5-(piperazin-1-yl)pyridin-2-yl)pyrimidin-2-amine]",20,> 5000,5,4530,3140 ± 173,> 5000,671 ± 91,720,,,,
"Cc1nc(SC(C)C)sc1-c1ccnc(Nc2ccc(N3CCNCC3)cn2)n1 [Compound 23, 4-(2-(isopropylthio)-4-methylthiazol-5-yl)-N-(5-(piperazin-1-yl)pyridin-2-yl)pyrimidin-2-amine]",200,> 5000,30,> 5000,461 ± 59,> 5000,73 ± 25,180,,,,
"Cc1nc(C)c(-c2ccnc(Nc3ccc(N4CCNCC4)cn3)n2)s1 [Compound 2, 4-(2,4-dimethylthiazol-5-yl)-N-(5-(piperazin-1-yl)pyridin-2-yl)pyrimidin-2-amine]",245,> 5000,55,> 5000,> 10000,> 5000,1021 ± 7,> 5000,,,,
"Cc1nc(SC(C)C)sc1-c1ccnc(Nc2ccc(N3CCN(C)CC3)cn2)n1 [Compound 24, 4-(2-(isopropylthio)-4-methylthiazol-5-yl)-N-(5-(4-methylpiperazin-1-yl)pyridin-2-yl)pyrimidin-2-amine]",15,3990,1,4610,4880 ± 214,> 5000,66 ± 19,180,,,,
"Cc1c(-c2ccnc(Nc3ccc(N4CCN(C)CC4)cn3)n2)sc(=O)n1C [Compound 93, 3,4-dimethyl-5-(2-((5-(4-methylpiperazin-1-yl)pyridin-2-yl)amino)pyrimidin-4-yl)thiazol-2(3H)-one]",915,,255,840,> 10000,,3720 ± 357,,71,77,52,
"Cc1nc(N(C)C)sc1-c1ccnc(Nc2ccc(N3CCN(C)CC3)cn2)n1 [Compound 45, N,N,4-trimethyl-5-(2-((5-(4-methylpiperazin-1-yl)pyridin-2-yl)amino)pyrimidin-4-yl)thiazol-2-amine]",154,> 5000,30,> 5000,2100 ± 787,> 5000,92 ± 4,1430,,,,
"Cc1nc(N(C)C)sc1-c1ccnc(Nc2ccc(N3CCNCC3)cn2)n1 [Compound 43, N,N,4-trimethyl-5-(2-((5-(piperazin-1-yl)pyridin-2-yl)amino)pyrimidin-4-yl)thiazol-2-amine]",56,> 5000,21,> 5000,894 ± 91,> 5000,11 ± 21,903,,,,
"Cc1nc(NC2CCCC2)sc1-c1nc(Nc2ccc(N3CCN(S(C)(=O)=O)CC3)cn2)ncc1F [Compound 82, N-cyclopentyl-5-(5-fluoro-2-((5-(4-(methylsulfonyl)piperazin-1-yl)pyridin-2-yl)amino)pyrimidin-4-yl)-4-methylthiazol-2-amine]",101,> 5000,39,> 5000,2810 ± 89,> 5000,2630 ± 582,348,,,,
"CSc1nc(C)c(-c2ccnc(Nc3ccc(N4CCN(C(C)=O)CC4)cn3)n2)s1 [Compound 22, 1-(4-(6-((4-(4-methyl-2-(methylthio)thiazol-5-yl)pyrimidin-2-yl)amino)pyridin-3-yl)piperazin-1-yl)ethan-1-one]",1950,> 5000,190,,> 10000,,2510 ± 432,4760,,,86,80
"CC(=O)N1CCN(c2ccc(Nc3ncc(C#N)c(-c4sc(C)nc4C)n3)nc2)CC1 [Compound 6, 2-((5-(4-acetylpiperazin-1-yl)pyridin-2-yl)amino)-4-(2,4-dimethylthiazol-5-yl)pyrimidine-5-carbonitrile]",201,> 5000,119,> 5000,> 10000,> 5000,2130 ± 969,> 5000,,,,
"Cc1nc(NC2CCCC2)sc1-c1nc(Nc2ccc(N3CCC(N(C)C)CC3)cn2)ncc1F [Compound 80, N-cyclopentyl-5-(2-((5-(4-(dimethylamino)piperidin-1-yl)pyridin-2-yl)amino)-5-fluoropyrimidin-4-yl)-4-methylthiazol-2-amine]",31,> 5000,1,1090,356 ± 24,> 5000,454 ± 40,1150,,,,
"CC(=O)N1CCN(c2ccc(Nc3nccc(-c4sc(C(C)C)nc4C)n3)nc2)CC1 [Compound 16, 1-(4-(6-((4-(2-isopropyl-4-methylthiazol-5-yl)pyrimidin-2-yl)amino)pyridin-3-yl)piperazin-1-yl)ethan-1-one]",209,4850,62,> 5000,> 10000,> 5000,457 ± 122,246,,,,
"Cc1nc(C)c(-c2nc(Nc3ccc(N4CCNCC4)cn3)ncc2C#N)s1 [Compound 4, 4-(2,4-dimethylthiazol-5-yl)-2-((5-(piperazin-1-yl)pyridin-2-yl)amino)pyrimidine-5-carbonitrile]",117,> 5000,31,2040,1970 ± 404,> 5000,296 ± 287,> 5000,,,,
"CNc1nc(C)c(-c2ccnc(Nc3ccc(N4CCN(Cc5ccccc5)CC4)cn3)n2)s1 [Compound 39, 5-(2-((5-(4-benzylpiperazin-1-yl)pyridin-2-yl)amino)pyrimidin-4-yl)-N,4-dimethylthiazol-2-amine]",2710,> 5000,169,> 5000,,> 5000,45900 ± 2520,> 5000,,,,
"CNc1nc(C)c(-c2ccnc(Nc3ccc(N4CCOCC4)cn3)n2)s1 [Compound 36, N,4-dimethyl-5-(2-((5-morpholinopyridin-2-yl)amino)pyrimidin-4-yl)thiazol-2-amine]",610,> 5000,20,> 5000,,> 5000,643 ± 18,459,,,,
"CNc1nc(C)c(-c2nc(Nc3ccc(N4CCN(Cc5ccccc5)CC4)cc3)ncc2C#N)s1 [Compound 42, 2-((4-(4-benzylpiperazin-1-yl)phenyl)amino)-4-(4-methyl-2-(methylamino)thiazol-5-yl)pyrimidine-5-carbonitrile]",36,89,1,34,,101,37 ± 6,17,,,,
